Assay results as given in publication PMC9321647, “Curcumin-Based β-Diketo Ligands for Ga^3+: Thermodynamic Investigation of Potential Metal-Based Drugs” (Pharmaceuticals, 2022).

Experiments:
[1] = Keto-enol/diketo tautomer amounts by 1H NMR; format: physicochemical; details: molar percentage, MeOD-d4, 298 K; for KE (%) amount of keto–enol form: for 2 includes KE form of the Z isomer (6%)
Description: NMR spectra were recorded by means of a Bruker Biospin FT-NMR AVANCE III HD (600 MHz) spectrometer equipped with a CryoProbe BBO H&F 5 mm in inverse detection. The nominal frequencies were 150.90 MHz for ^13C and 600.13 MHz for ^1H, respectively. For each sample, 1–5 mg were weighed and diluted up to 0.6 mL with a proper solvent in a 5 mm NMR tube; 90° pulse was calibrated for each sample, and standard NMR parameters were used to achieve quantitative results (relaxation delay, 10 s). Proton and carbon chemical shifts are given in parts per million (ppm) versus external TMS and were determined by reference to the solvent residual signals. Typical 2D homo- and heteronuclear techniques were used for assignment, i.e., ^1H,^1H COSY, ^1H,^13C HSQC, ^1H,^13C HMBC. NMR investigations of Ga^3+:L systems were performed in MeOD-d4 by adding small amounts of a Ga(NO3)3 solution (10 μL each) to 1 mM ligand solution (0.6 mL) until reaching the desired metal-to-ligand molar ratio. The complexation reaction is fast, and spectra were registered few minutes after the addition. Two-dimensional ^1H,^13C heteronuclear multiple bond correlation (HMBC) experiments (hmbcgpndqf in Bruker library) were performed via heteronuclear zero and double quantum coherence, optimized on long-range couplings (^3/4JHC = 8 Hz), with no decoupling during acquisition, and gradient pulses were used for selection. The relative percentages of the isomeric forms were estimated on the basis of the NMR data. Particularly, ^1H NMR spectra were acquired in quantitative conditions being D1 (relaxation delay) at least five times the T1 of the slowest relaxing signal of interest. The raw data were Fourier-transformed, and then the processing was performed by zero filling (SI = TD), line broadening (lb 0.3 Hz), accurate phasing and correcting the baseline. The most isolated signals were selected for integration, i.e., the vinyl protons (H-3 and H-4), and an average of the integrated area (A) of H-3 and H-4 was used for relative quantitation, according to the following equation: %Tautomeri=(A(H−3)i+(A(H−4)i)/2/∑i(A(H−3)i+(A(H−4)i)/2×100

[2] = Iron-chelating ability by spectrophotometric analysis / transmetalation; format: physicochemical; details: for logβ124(Fe): Fe^3+, same conditions as Ga^3+ systems
Description: Compounds 4 and 5 were selected to evaluate iron-chelating ability by spectrophotometric analysis in the same conditions as the ones applied to carry out investigations on Ga^3+ systems. The calculated logβ124(Fe) values were 56.2 (2) and 58.6 (4) for 4 and 5, respectively. From the difference between the logβ values of the complexes with two metal ions, it is possible to calculate the apparent stability constant K (logK = logβ124(Fe) − logβ124(Ga)) associated with the transmetalation reaction (Equation (1)). (1) Fe^3++[Ga(H2L)2]^+ ⇆ […]+[Fe(H2L)2]^+
UV–visible spectra were recorded with a JASCO V-570 UV/Vis/NIR spectrophotometer at 298 K in the 250–600 nm spectral range employing quartz cells (1 cm optical path). To perform spectrophotometric titrations, ligands (denoted generally as L in the following) were dissolved in methanol to give a mother solution (2.50 mM), that was then diluted in water in order to obtain a final concentration of 50 μM. The metal/ligand (M:L) solutions were obtained by adding appropriate quantities of Ga(NO3)3 as methanol solutions (5–10 mM) in order to obtain the metal-to-ligand 1:1 molar ratio (L = 50 μM and V = 25 mL). For both L and M:L systems, pH (initial value of about 5) was varied by adding small amounts (<1 μL) of concentrated NaOH (4 M) up to ca. pH 11, thus to consider volume variations negligible. […] The overall protonation constants (logβqr) and the overall stability constants of metal complexes (logβpqr) were evaluated from spectrophotometric data. […] The quantities are obtained by performing error propagation calculation from the experimental errors onto the parameters. […] The error on logβ is calculated as follows: σ(logβ) = [log(β + σ) − log(β − σ)]/2.
Hydroxide species, such as [Ga(OH)2]^+, were taken into account for calculations. The hydrolysis constants for Ga^3+ are as follows: logβ1,1,0 = −3.93; logβ2,1,0 = −7.73; logβ3,1,0 = −12.38; logβ4,1,0 = −15.96; logβ32,13,0 = −66.3; logβ3,1,0(s) = −3.54 [43]; pGa is defined as (−log[Ga^3+]free) and is calculated at specific conditions (Ga^3+total = 1 μM, Ltotal = 10 μM, pH 7.4, 25 °C). […]

[3] = DPPH radical-scavenging assay; details: free ligand
Description: The antioxidant activity of compounds 4 and 5 and their Ga^3+ metal complexes at the M:L 1:1 and 1:2 molar ratio was evaluated in terms of hydrogen-donating or radical scavenging ability using a stable DPPH radical, 1,1-diphenyl-2-picrylhydrazyl radical, following the procedure previously reported. The percentage of inhibition (%In) of the DPPH radical by each sample was calculated according to the following formula: %In=A0−At/A0×100 where A0 represents the absorbance of the control (DPPH radical) at time 0, while At refers to the absorbance of the mixture antioxidant/DPPH at time t (120 min). Values of absorbance were corrected considering volume dilution. All the determinations were performed in duplicate.

KK (%) amount of diketo form [1]	KE (%) amount of keto–enol form [1]	logβ124(Fe) [2]	IC50 [3]	LogK apparent stability constant of transmetalation (logβ124(Fe) − logβ124(Ga)) ([2]; Fe^3+ + [Ga(H2L)2]^+ exchange)	Compound
30%	70%	58.6 (4)	32 µM		2-((4Z,6E)-5-hydroxy-7-(4-hydroxyphenyl)-4-((E)-3-(4-hydroxy-3-ethoxyphenyl) acryloyl) hepta-4,6-dien-1-yl)isoindoline-1,3-dione [Compound 5]
53%	47%	56.2 (2)	20 µM	0.9(3)	COc1cc(/C=C/C(=O)C(CCCN2C(=O)c3ccccc3C2=O)C(=O)/C=C/c2ccc(O)c(OC)c2)ccc1O [Compound 4]
